Experimental data as given in patent publication US12690589B2, “Herbicidal compositions comprising pyroxasulfone” (BASF SE, priority 2024, dated 2026).

Key:
Experiment in all cases: Post-emergence application in field trials, herbicidal activity (damage scale 0 to 100%)
Format in all cases: in vivo
Zea mays (ZEAMX) = test system: Zea mays (ZEAMX)
Method: (§1) In the examples below, using the method of S. R. Colby (1967) “Calculating synergistic and antagonistic responses of herbicide combinations”, Weeds 15, p. 22ff., the value E, which is expected if the activity of the individual active compounds is only additive, was calculated:
(§2) [formula] • wherein • X=percent activity using active herbicide A at an application rate a; • Y=percent activity using active herbicide B (e.g. pyroxasulfone) at an application rate b; • E=expected activity (in %) by A+B at application rates a+b.
(§3) For 3-component mixtures the synergistic response was calculated as described in: Ferry, Nancy; Stanley, Bruce H.; and Armel, Gregory (2005). “DESIGN AND ANALYSIS OF BIOLOGICAL ASSAYS OF MIXTURES,” Conference on Applied Statistics in Agriculture. https://doi.org/10.4148/2475-7772.1133. According to this publication, the Colby calculation can be generalized to a third mixing partner, Z, employing the following formula: […]
(§4) If the value found experimentally is higher than the value E calculated according to Colby, a synergistic effect is present.
(§5) On field test sites, natural weed infestation or seeded weeds were treated post-emergence of the weeds.
(§6) In the field trials, the weeds were treated as indicated below.
(§7) In the following experiments, the herbicidal activity for the individual herbicidal compositions (solo and mixture applications) was assessed at the indicated days after treatment (DAT). The assessments for the damage on undesired weeds caused by the composition was carried out using a scale from 0 to 100%, compared to the untreated control plants. Here, 0 means no damage and 100 means complete destruction of the plants.
(§8) Herbicide A-1 (342 g/l) and pyroxasulfone (500 g/l) were, together with addition of 0.25 v/v % MSO (methylated seed oil) as adjuvant, formulated in 200 l/ha water as distribution medium and sprayed with commercial flat fan nozzles.
(§9) Herbicide A-1 (342 g/l), pyroxasulfone (500 g/l) and trifludimoxazin (500 g/l) were, together with addition of 0.25 v/v % MSO (methylated seed oil) as adjuvant, formulated in 200 l/ha water as distribution medium and sprayed with commercial flat fan nozzles.
(§10) Herbicide A-1 (342 g/I), pyroxasulfone (500 g/l) and glyphosate-isopropylammonium (356 g/l) were, together with addition of 0.25 v/v % MSO (methylated seed oil) as adjuvant, formulated in 200 l/ha water as distribution medium and sprayed with commercial flat fan nozzles.
(§11) Herbicide A-1 (342 g/l), pyroxasulfone (500 g/l) and glufosinate-P-ammonium (211 g/l) were, together with addition of 0.25 v/v % MSO (methylated seed oil) as adjuvant, formulated in 200 l/ha water as distribution medium and sprayed with commercial flat fan nozzles.
(§12) Herbicide A-1 (342 g/l), pyroxasulfone (500 g/l) and 2,4-D-choline (456 g/l) were, together with addition of 0.25 v/v % MSO (methylated seed oil) as adjuvant, formulated in 200 l/ha water as distribution medium and sprayed with commercial flat fan nozzles.

[1] = test system: Digitaria sanguinalis (DIGSA)
Method: as §1, §2, §3, §4, §5, §6, §7, §8, §9, §10, §11, §12

[2] = test system: Lolium multiflorum (LOLMU); settings: stage 22-25, height 20-25 cm
Method: as §1, §2, §3, §4, §5, §6, §7, §8, §9, §10, §11, §12

CCOC(=O)COc1ccccc1Oc1nc(-n2c(=O)cc(C(F)(F)F)n(C)c2=O)c(F)cc1Cl [A-1, ethyl 2-[2-[[3-chloro-5-fluoro-6-[3-methyl-2,6-dioxo-4-(trifluoromethyl)pyrimidin-1-yl]-2-pyridyl]oxy]phenoxy]acetate]
% Herbicidal activity (Zea mays (ZEAMX); 7 DAT, stage 15-16, height 27-33 cm, g ai/ha A-1 12.5, B 70, C-12 252): 40%
% Herbicidal activity (Zea mays (ZEAMX); 7 DAT, stage 15-16, height 27-33 cm, g ai/ha A-1 18, B 70, C-12 252): 40%
% Herbicidal activity (Zea mays (ZEAMX); 7 DAT, stage 15-16, height 27-33 cm, g ai/ha A-1 18, B 90, C-4 12.5): 55%
% Herbicidal activity (Zea mays (ZEAMX); 7 DAT, stage 15-16, height 27-33 cm, g ai/ha A-1 18, B 90, C-12 252): 40%
% Herbicidal activity (Zea mays (ZEAMX); 21 DAT, stage 15-16, height 27-33 cm, g ai/ha A-1 12.5, B 70, C-12 252): 25%
% Herbicidal activity (Zea mays (ZEAMX); 21 DAT, stage 15-16, height 27-33 cm, g ai/ha A-1 18, B 70, C-12 252): 30%
% Herbicidal activity (Zea mays (ZEAMX); 21 DAT, stage 15-16, height 27-33 cm, g ai/ha A-1 18, B 90, C-12 252): 30%
% Herbicidal activity (Zea mays (ZEAMX); 42 DAT, stage 15-16, height 27-33 cm, g ai/ha A-1 12.5, B 70, C-12 252): 15%
% Herbicidal activity (Zea mays (ZEAMX); 42 DAT, stage 15-16, height 27-33 cm, g ai/ha A-1 18, B 70, C-12 252): 20%
% Herbicidal activity (Zea mays (ZEAMX); 42 DAT, stage 15-16, height 27-33 cm, g ai/ha A-1 18, B 90, C-12 252): 20%
% Herbicidal activity (Zea mays (ZEAMX); Table 8.1, 7 DAT, stage 15-16, height 50-60 cm, g ai/ha A-1 18, B 70, C-12 1066): 85%
% Herbicidal activity (Zea mays (ZEAMX); Table 8.1, 7 DAT, stage 15-16, height 50-60 cm, g ai/ha A-1 18, B 90, C-12 1066): 85%
% Herbicidal activity (Zea mays (ZEAMX); ZEAMX, growth stage 15-16, height 40-60 cm, A-1 18 g ai/ha, 7 DAT, Table 4.2): 85%
% Herbicidal activity (Zea mays (ZEAMX); ZEAMX, growth stage 15-16, height 40-60 cm, A-1 18 g ai/ha, 21 DAT, Table 4.4): 80%
% Herbicidal activity ([1]; 7 DAT, stage 22, height 10-15 cm, g ai/ha A-1 12.5, B 70, C-4 12.5): 80%
% Herbicidal activity ([1]; 7 DAT, stage 22, height 10-15 cm, g ai/ha A-1 18, B 70, C-4 12.5): 85%
% Herbicidal activity ([1]; 7 DAT, stage 22, height 10-15 cm, g ai/ha A-1 18, B 70, C-8 840): 80%
% Herbicidal activity ([1]; 7 DAT, stage 22, height 10-15 cm, g ai/ha A-1 18, B 70, C-12 252): 85%
% Herbicidal activity ([1]; 7 DAT, stage 22, height 10-15 cm, g ai/ha A-1 18, B 90, C-4 12.5): 85%
% Herbicidal activity ([1]; 7 DAT, stage 22, height 10-15 cm, g ai/ha A-1 18, B 90, C-8 840): 80%
% Herbicidal activity ([1]; 7 DAT, stage 22, height 10-15 cm, g ai/ha A-1 18, B 90, C-12 252): 85%
% Herbicidal activity ([1]; 21 DAT, stage 22, height 10-15 cm, g ai/ha A-1 12.5, B 70, C-4 12.5): 70%
% Herbicidal activity ([1]; 21 DAT, stage 22, height 10-15 cm, g ai/ha A-1 18, B 70, C-4 12.5): 80%
% Herbicidal activity ([1]; 21 DAT, stage 22, height 10-15 cm, g ai/ha A-1 18, B 70, C-12 252): 85%
% Herbicidal activity ([1]; 21 DAT, stage 22, height 10-15 cm, g ai/ha A-1 18, B 90, C-4 12.5): 80%
% Herbicidal activity ([1]; 21 DAT, stage 22, height 10-15 cm, g ai/ha A-1 18, B 90, C-12 252): 85%
% Herbicidal activity ([1]; 42 DAT, stage 22, height 10-15 cm, g ai/ha A-1 12.5, B 70): 65%
% Herbicidal activity ([1]; 42 DAT, stage 22, height 10-15 cm, g ai/ha A-1 12.5, B 70, C-4 12.5): 60%
% Herbicidal activity ([1]; 42 DAT, stage 22, height 10-15 cm, g ai/ha A-1 18, B 70): 80%
% Herbicidal activity ([1]; 42 DAT, stage 22, height 10-15 cm, g ai/ha A-1 18, B 70, C-4 12.5): 70%
% Herbicidal activity ([1]; 42 DAT, stage 22, height 10-15 cm, g ai/ha A-1 18, B 70, C-12 252): 70%
% Herbicidal activity ([1]; 42 DAT, stage 22, height 10-15 cm, g ai/ha A-1 18, B 90): 80%
% Herbicidal activity ([1]; 42 DAT, stage 22, height 10-15 cm, g ai/ha A-1 18, B 90, C-4 12.5): 70%
% Herbicidal activity ([1]; 42 DAT, stage 22, height 10-15 cm, g ai/ha A-1 18, B 90, C-12 252): 70%
% Herbicidal activity ([1]; DIGSA, growth stage 22, height 10-15 cm, A-1 12.5 g ai/ha, 7 DAT, Table 4.1): 80%
% Herbicidal activity ([1]; DIGSA, growth stage 22, height 10-15 cm, A-1 12.5 g ai/ha, 21 DAT, Table 4.3): 70%
% Herbicidal activity ([1]; DIGSA, growth stage 22, height 10-15 cm, A-1 18 g ai/ha, 7 DAT, Table 4.1): 80%
% Herbicidal activity ([1]; DIGSA, growth stage 22, height 10-15 cm, A-1 18 g ai/ha, 21 DAT, Table 4.3): 80%
% Herbicidal activity ([1]; Table 8.1, 7 DAT, stage 22, height 10-15 cm, g ai/ha A-1 18, B 70, C-12 1066): 80%
% Herbicidal activity ([1]; Table 8.2, 21 DAT, stage 22, height 10-15 cm, g ai/ha A-1 18, B 70, C-12 1066): 80%
% Herbicidal activity ([1]; Table 8.4, 42 DAT, stage 22, height 10-15 cm, g ai/ha A-1 18, B 70, C-12 1066): 60%
% Herbicidal activity ([2]; 7 DAT, g ai/ha A-1 12.5, B 70, C-12 252): 60%
% Herbicidal activity ([2]; 7 DAT, g ai/ha A-1 18, B 70, C-12 252): 60%
% Herbicidal activity ([2]; 7 DAT, g ai/ha A-1 18, B 90, C-12 252): 60%
% Herbicidal activity ([2]; 21 DAT, g ai/ha A-1 12.5, B 70, C-12 252): 40%
% Herbicidal activity ([2]; 21 DAT, g ai/ha A-1 18, B 70, C-12 252): 40%
% Herbicidal activity ([2]; 21 DAT, g ai/ha A-1 18, B 90, C-12 252): 40%
